In patent publication US20060009465A1, “Treatment of sleep disorders using sleep target modulators” (priority 2002, published 2006):
“Also recorded” adds a separate entry of the source.

Test system: Male Wistar rats
Assay: SCORE-2000 sleep-wake assay (EEG/EMG, locomotor activity, body temperature)
[1] = Example 2, 10 mg/kg IP at CT-18
[2] = Example 3, male Wistar rats, 30 mg/kg
[3] = Example 2, 3 mg/kg and 10 mg/kg IP at CT-5

Cl.O=C(O)C1CN(CCCn2nc3ccccn3c2=O)CCN1c1cccc(Cl)c1 (centres unmarked) [HY-2724]
increasing sleep and sleep consolidation (Example 4, male Wistar rats, 30 mg/kg): ineffective

O=c1n(CCCN2CCN(c3cccc(Cl)c3)CC2)nc2ccccn12 [Trazodone]
REM Sleep Inhibition [1]: without evidence
adverse thermoregulatory events post-treatment [1]: no evidence
disproportional motor inhibition / locomotor activity changes [1]: without evidence; also recorded: no evidence
nonREM sleep time [1]: increased nonREM sleep time; also recorded: markedly and significantly increased
rebound insomnia [1]: without evidence; also recorded: no evidence
Body Temp (CV) Adverse Event [2]: Yes
Disproportional Motor Inhibition [2]: None
Initial Sleep Interference [2]: initially interferes with sleep; also recorded: significant initial sleep interference
REM Sleep Inhibition [2]: inhibits REM sleep; also recorded: significant REM sleep inhibition
rebound insomnia [2]: None

Clc1cccc(N2CCNCC2)c1 [m-CPP, meta-chlorophenylpiperazine]
interference with sleep, time post-treatment [3]: 2 to 3 h
rebound hypersomnolence [3]: followed by a rebound hypersomnolence
reduction in nonREM sleep time, lasting post-treatment [3]: 2 to 3 h
